Source: patent publication EP4471048A1, “PEPTIDE INHIBITORS OF INTERLEUKIN-23 RECEPTOR” (Zealand Pharma A/S, priority 2023, dated 2024)
Blank lines part the entries; values can stand above or below the molecule they belong to. *1 amine or outer side, *2 acyl side, *3 side chain or, on linkers, in order; H or OH if unused. Where a SMILES comes first, the peptide text is derived from it. Bridges are numbered along the chain shown (N, C = ends). [ ]: non-standard residue; d: D form. hAad = O=C([C@H](CCCCC(=O)[*:3])N[*:1])[*:2]; Trp(1-Me) = Cn1cc(C[C@H](N)C(=O)O)c2ccccc21; 2Nal = N[C@@H](Cc1ccc2ccccc2c1)C(=O)O; AEF = NCCOc1ccc(C[C@H](N)C(=O)O)cc1; 3Pal = N[C@@H](Cc1cccnc1)C(=O)O; αMeL = CC(C)C[C@](C)(N)C(=O)O; dDab = NCC[C@@H](N)C(=O)O; Dab = NCC[C@H](N)C(=O)O; βAla = NCCC(=O)O

Target: T1, human IL-23R (Homo sapiens, UniProt Q5VWK5)
T1 sequence (Q5VWK5 22-629): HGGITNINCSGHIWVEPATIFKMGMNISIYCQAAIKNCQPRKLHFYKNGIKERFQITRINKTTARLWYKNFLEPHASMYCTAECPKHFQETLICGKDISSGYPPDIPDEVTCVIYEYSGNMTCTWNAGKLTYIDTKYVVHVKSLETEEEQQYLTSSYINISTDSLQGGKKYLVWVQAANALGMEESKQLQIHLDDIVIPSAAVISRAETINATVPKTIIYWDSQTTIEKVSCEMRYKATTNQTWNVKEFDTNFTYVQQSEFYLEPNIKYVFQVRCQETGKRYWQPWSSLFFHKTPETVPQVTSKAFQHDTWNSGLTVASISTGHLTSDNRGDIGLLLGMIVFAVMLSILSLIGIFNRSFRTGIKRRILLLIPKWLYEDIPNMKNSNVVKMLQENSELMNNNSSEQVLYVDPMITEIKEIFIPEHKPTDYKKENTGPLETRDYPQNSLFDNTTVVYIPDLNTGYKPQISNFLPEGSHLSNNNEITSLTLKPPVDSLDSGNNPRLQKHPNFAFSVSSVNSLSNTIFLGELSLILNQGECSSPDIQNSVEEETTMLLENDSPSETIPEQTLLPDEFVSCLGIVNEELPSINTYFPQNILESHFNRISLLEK
Assay: biochemical
Settings: for Emax: read-out: % displacement (hIL-23R NIuc)
Method in brief: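 Membranes from HEK293 cells stably expressing Nluc-tagged human IL-23R were incubated 2 h at room temperature with test compound and a fluorophore-labelled tracer. After substrate addition, loss of BRET (TAMRA over luciferase emission) reported tracer displacement. A 4PL fit gave IC50 values.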

IC50: 0.079 nM | Emax: 100%
Structure (SMILES): CNC(=O)[C@H](Cc1cccnc1)NC(=O)[C@H](CCN)NC(=O)[C@@H]1CCC(=O)NCCCC[C@@H]2NC(=O)CC[C@H](NC(=O)[C@H](CCC(N)=O)NC(=O)[C@H](Cc3c[nH]c4ccccc34)NC(=O)CCNC2=O)C(=O)N[C@@H](Cc2c[nH]c3ccccc23)C(=O)N[C@@H](Cc2ccc3ccccc3c2)C(=O)N[C@@](C)(CC(C)C)C(=O)N1 [Compound 110, K(1c)(6c)^†[3-Aminopropanoyl]WQE(6c)W[2-Nal][2-Me-Leu]E(1c)[Dab][3-(3-Pyridyl)-Ala]-[NHMe]] (K[βAla]WQEW[2Nal][αMeL]E[Dab][3Pal]-NHMe; lactam 1-9, N-5)

IC50: 2.6 nM | Emax: 102%
Structure (SMILES): CC[C@H](C)[C@@H]1NC(=O)[C@@H]2CCCCNC(=O)CC[C@@H](C(=O)N[C@@H](CCN)C(=O)NCCCc3cccnc3)NC(=O)[C@](C)(CC(C)C)NC(=O)[C@H](Cc3ccc4ccccc4c3)NC(=O)[C@H](Cc3ccc(OCCN)cc3)NC(=O)[C@H](CCC(=O)N2)NC(=O)[C@H](CCC(N)=O)NC(=O)[C@H](Cc2c[nH]c3ccccc23)NC(=O)[C@H](C(C)C)NC1=O [Compound 67, K(1c)(6c)^†IVWQE(6c)[Y(2-aminoethoxy)][2-Nal][2-Me-Leu]E(1c)[Dab]-[NH-3-(pyridin-3-yl)propyl]]

IC50: 11 nM | Emax: 101%
Structure (SMILES): CNC(=O)[C@H](Cc1cccnc1)NC(=O)[C@H](CCN)NC(=O)[C@@H]1CCC(=O)N[C@H]2CCNC(=O)CC[C@H](NC(=O)[C@H](CCC(N)=O)NC(=O)[C@H](Cc3c[nH]c4ccccc34)NC(=O)CNC2=O)C(=O)N[C@@H](Cc2ccc(OCCN)cc2)C(=O)N[C@@H](Cc2ccc3ccccc3c2)C(=O)N[C@@](C)(CC(C)C)C(=O)N1 [Compound 105, [iso-Dab](1c)^†(6c)GWQE(6c)[Y(2-aminoethoxy)][2-Nal][2-Me-Leu]E(1c)[Dab][3-(3-Pyridyl)-Ala]-[NHMe]]

IC50: 4.5 nM | Emax: 97%
Structure (SMILES): CNC(=O)[C@H](Cc1cccnc1)NC(=O)[C@H](CCN)NC(=O)[C@@H]1CCC(=O)N[C@H]2CCCCNC(=O)CC[C@H](NC(=O)[C@H](CCC(N)=O)NC(=O)[C@H](Cc3c[nH]c4ccccc34)NC2=O)C(=O)N[C@@H](Cc2ccc(OCCN)cc2)C(=O)N[C@@H](Cc2ccc3ccccc3c2)C(=O)N[C@@](C)(CC(C)C)C(=O)N1 [Compound 102, [iso-Lys](1c)^t(6c)WQE(6c)[Y(2-aminoethoxy)][2-Nal][2-Me-Leu]E(1c)[Dab][3-(3-Pyridyl)-Ala]-[NHMe]] (KWQE[AEF][2Nal][αMeL]E[Dab][3Pal]-NHMe; lactam 1-4, N-8)

IC50: 15 nM | Emax: 101%
Structure (SMILES): CNC(=O)[C@H](Cc1cccnc1)NC(=O)[C@H](CCN)NC(=O)[C@@H]1CCC(=O)N[C@H]2CCNC(=O)CC[C@H](NC(=O)[C@H](CCC(N)=O)NC(=O)[C@H](Cc3c[nH]c4ccccc34)NC2=O)C(=O)N[C@@H](Cc2ccc(OCCN)cc2)C(=O)N[C@@H](Cc2ccc3ccccc3c2)C(=O)N[C@@](C)(CC(C)C)C(=O)N1 [Compound 103, [iso-Dab](1c)^†(6c)WQE(6c)[Y(2-aminoethoxy)][2-Nal][2-Me-Leu]E(1c)[Dab][3-(3-Pyridyl)-Ala]-[NHMe]]

IC50: 0.02 nM | Emax: 100%
Structure (SMILES): CNC(=O)[C@H](Cc1cccnc1)NC(=O)[C@H](CCN)NC(=O)[C@@H]1CCC(=O)NCCCC[C@@H]2NC(=O)CC[C@H](NC(=O)[C@H](CCC(N)=O)NC(=O)[C@H](Cc3cn(C)c4ccccc34)NC(=O)CCNC2=O)C(=O)N[C@@H](Cc2ccc(OCCN)cc2)C(=O)N[C@@H](Cc2ccc3ccccc3c2)C(=O)N[C@@](C)(CC(C)C)C(=O)N1 [Compound 79, K(1c)(6c)^†[3-Aminopropanoyl][1-Me-Trp]QE(6c)[Y(2-aminoethoxy)][2-Nal][2-Me-Leu]E(1c)[Dab][3-(3-Pyridyl)-Ala]-[NHMe]] (K[βAla][Trp(1-Me)]QE[AEF][2Nal][αMeL]E[Dab][3Pal]-NHMe; lactam 1-9, N-5)

The next lines start with the molecule.

Structure (SMILES): CC(C)C[C@]1(C)NC(=O)[C@H](Cc2ccc3ccccc3c2)NC(=O)[C@H](Cc2ccc(OCCN)cc2)NC(=O)[C@@H]2CC(=O)N[C@H](CCNC(=O)CCCC[C@@H](C(=O)N[C@@H](CCN)C(=O)N[C@@H](Cc3cccnc3)C(N)=O)NC1=O)C(=O)N[C@@H]([C@@H](C)O)C(=O)N[C@@H](Cc1c[nH]c3ccccc13)C(=O)N[C@@H](CCC(N)=O)C(=O)N2 [Compound 15, [{d}Dab](1c)(6c)^†TWQD(6c)[Y(2-aminoethoxy)][2-Nal][2-Me-Leu][2-Amino-6-carboxyhexanoyl](1 c)[Dab][3-(3-Pyridyl)-Ala]-[NH2]] ([dDab]TWQD[AEF][2Nal][αMeL][hAad][Dab][3Pal]-NH2; lactam 1-9, N-5)
Emax: 105%

Structure (SMILES): CC[C@H](C)[C@@H]1NC(=O)[C@@H]2CCCCNC(=O)CC[C@@H](C(=O)N[C@@H](CCN)C(=O)N[C@@H](Cc3cccnc3)C(=O)NC)NC(=O)[C@](C)(CC(C)C)NC(=O)[C@H](Cc3ccc4ccccc4c3)NC(=O)[C@H](Cc3ccc(OCc4ccccc4)cc3)NC(=O)[C@H](CCC(=O)N2)NC(=O)[C@H](CCC(N)=O)NC(=O)[C@H](Cc2c[nH]c3ccccc23)NC(=O)[C@H](C(C)C)NC1=O [Compound 34, K(1c)(6c)^†IVWQE(6c)[Y(Bn)][2-Nal][2-Me-Leu]E(1c)[Dab][3-(3-Pyridyl)-Ala]-[NHMe]]
IC50: 0.62 nM | Emax: 100%

Structure (SMILES): CC[C@H](C)[C@@H]1NC(=O)[C@@H]2CCCCNC(=O)CC[C@@H](C(=O)N[C@@H](CCN)C(=O)N[C@@H](Cc3cccnc3)C(N)=O)NC(=O)[C@](C)(C(C)C)NC(=O)[C@H](Cc3ccc4ccccc4c3)NC(=O)[C@H](Cc3ccc(C)cc3)NC(=O)[C@H](CCC(=O)N2)NC(=O)[C@H](CCC(N)=O)NC(=O)[C@H](Cc2c[nH]c3ccccc23)NC(=O)[C@H](C(C)C)NC1=O [Compound 16, K(1c)(6c)^†IVWQE(6c)[F(4-Me)][2-Nal][2-Me-Val]E(1c)[Dab][3-(3-Pyridyl)-Ala]-[NH2]]
IC50: 0.099 nM | Emax: 101%

Structure (SMILES): CNC(=O)[C@H](Cc1cccnc1)NC(=O)[C@H](CCN)NC(=O)[C@@H]1CCC(=O)NCCCC[C@@H]2NC(=O)CCC[C@H](NC(=O)[C@H](CCC(N)=O)NC(=O)[C@H](Cc3c[nH]c4ccccc34)NC(=O)[C@H]([C@@H](C)O)NC2=O)C(=O)N[C@@H](Cc2ccc(OCCN)cc2)C(=O)N[C@@H](Cc2ccc3ccccc3c2)C(=O)N[C@@](C)(CC(C)C)C(=O)N1 [Compound 38, K(1c)(6c)^†TWQ[hGlu](6c)[Y(2-aminoethoxy)][2-Nal][2-Me-Leu]E(1c)[Dab][3-(3-Pyridyl)-Ala]-[NHMe]]
IC50: 1.5 nM | Emax: 101%

Structure (SMILES): CC[C@H](C)[C@@H]1NC(=O)[C@@H]2CCCCNC(=O)CC[C@@H](C(=O)NCC(=O)N[C@H](Cc3cccnc3)C(N)=O)NC(=O)[C@](C)(C(C)C)NC(=O)[C@H](Cc3ccc4ccccc4c3)NC(=O)[C@](C)(Cc3ccccc3)NC(=O)[C@H](CCC(=O)N2)NC(=O)[C@H](CCC(N)=O)NC(=O)[C@H](Cc2c[nH]c3ccccc23)NC(=O)[C@H](C(C)C)NC1=O [Compound 21, K(1c)(6c)^†IVWQE(6c)[2-Me-Phe][2-Nal][2-Me-Val]E(1c)G[{d}3-(3-Pyridyl)-Ala]-[NH2]]
% displacement (hIL-23R NIuc): 101% | IC50: 1000 nM

Structure (SMILES): COc1ccc(C[C@@H]2NC(=O)[C@@H]3CCC(=O)N[C@@H](CCCCNC(=O)CC[C@@H](C(=O)N[C@@H](CCCCNC(=O)c4cncnc4)C(N)=O)NC(=O)[C@](C)(CC(C)C)NC(=O)[C@H](Cc4ccc5ccccc5c4)NC2=O)C(=O)N[C@@H]([C@@H](C)O)C(=O)N[C@@H](C(C)C)C(=O)N[C@@H](Cc2c[nH]c4ccccc24)C(=O)N[C@@H](CCC(N)=O)C(=O)N3)cc1 [Compound 56, K(1c)(6c)^†TVWQE(6c)[Y(Me)][2-Nal][2-Me-Leu]E(1c)[K(3,5-pyrimidine)]-[NH2]]
IC50: 210 nM | Emax: 98%

Structure (SMILES): CC[C@H](C)[C@@H]1NC(=O)[C@@H]2CCCCNC(=O)CC[C@@H](C(=O)NCCCCc3cccnc3)NC(=O)[C@](C)(C(C)C)NC(=O)[C@H](Cc3ccc4ccccc4c3)NC(=O)[C@H](Cc3ccc(OCCN)cc3)NC(=O)[C@H](CCC(=O)N2)NC(=O)[C@H](CCC(N)=O)NC(=O)[C@H](Cc2c[nH]c3ccccc23)NC(=O)[C@H](C(C)C)NC1=O [Compound 28, K(1c)(6c)^†IVWQE(6c)[Y(2-aminoethoxy)][2-Nal][2-Me-Val]E(1c)-[NH-4-(pyridin-3-yl)butanyl]]
% displacement (hIL-23R NIuc): 97% | IC50: 200 nM

Structure (SMILES): CC(C)C[C@]1(C)NC(=O)[C@H](Cc2ccc3ccccc3c2)NC(=O)[C@H](Cc2ccc(OCCN)cc2)NC(=O)[C@@H]2CC(=O)N[C@H](CCNC(=O)CCCC[C@@H](C(=O)N[C@@H](CCN)C(=O)N[C@@H](Cc3cccnc3)C(N)=O)NC1=O)C(=O)N[C@@H]([C@@H](C)O)C(=O)N[C@@H](C(C)C)C(=O)N[C@@H](Cc1c[nH]c3ccccc13)C(=O)N[C@@H](CCC(N)=O)C(=O)N2 [Compound 9, [{d}Dab](1c)(6c)^†TVWQD(6c)[Y(2-aminoethoxy)][2-Nal][2-Me-Leu][2-Amino-6-carboxyhexanoyl](1 c)[Dab][3-(3-Pyridyl)-Ala]-[NH2]] ([dDab]TVWQD[AEF][2Nal][αMeL][hAad][Dab][3Pal]-NH2; lactam 1-10, N-6)
% displacement (hIL-23R NIuc): 103% | IC50: 0.52 nM
